Measured values published in the NIST ThermoML archive (doi:10.1021/je400246s).
± gives the expanded uncertainty stated by the source.

Columns and labels:
[1] = Molar enthalpy of transition or fusion; settings: Crystal; DSC
[2] = Crystal; DTA

Row | Molar enthalpy of transition or fusion [1] [kJ/mol] | Normal melting temperature [2] [°C] | Structure (SMILES)
1 | 29.2 ± 1.9 | 162.1 ± 1.1 | O=C1c2ccccc2C(=O)c2c(Cl)cccc21 [1-chloroanthraquinone]
2 | 35.5 ± 2.2 | 233.2 ± 1.1 | O=C(O)c1cccc(Cl)c1C(=O)c1ccccc1 [2-benzoyl-3-chlorobenzoic acid]
